From EP4667007A2, “NOVEL ASSOCIATION OF GASTRODIA ELATA AND VITAMIN B” (Futura S.r.l., priority 2024, dated 2025)
Where two headings read alike, the source gives them in different places.

Experiments:
[1] = system: Caco-2 cells; settings: human
[2] = system: neuregulin 1 (NRG1); experiment: 3D EngNT under PNI conditions, NRG1 ELISA; type: cell-based, rat; settings: GGF 200 ng/mL, result in words
Experimental: To replicate a strong demyelination before stimulation with the two formulations and the single drugs, the 3D EngNT was pre-treated with 200 ng/mL glial growth factor 2 (GGF) starting on day 14 of maturation. This was necessary since the study needed to replicate the peripheral nerve tissue damage in vitro. Therefore, further studies were conducted to investigate the effects on cell viability and ROS production (Figures 5A-B). […] In contrast, both the individual components and formulations were able not only to re-establish physiological conditions, but also to induce a significant increase in cell viability and a decrease in ROS production (p<0.05). […]
This study was carried out in three different phases; the starting point of the study protocol was intended to study the absorption and transport processes of the novel formulation and individual components through the intestinal barrier using a 3D in vitro model with Caco-2 cells. […] Finally, in the third phase, peripheral nerve damage and demyelination were simulated in vitro, treating 3D EngNT with GGF 200ng/ml, to explore cell survival and mitochondrial activity, oxidative stress and ROS quantification, the inflammatory processes involved in neuropathy, nociceptive pathways for pain control, and the main pathways involved in the processes of myelin sheath protection and neurite formation. […]

[3] = system: Caco-2 cells; experiment: In vitro intestinal barrier model, absorption with fluorescent tracer (Transwell)

| Structure (SMILES) | Absorption Rate ([1]; 3 h) | Absorption Rate ([1]; 4 h) | Absorption Rate ([1]; 5 h) | Absorption Rate ([1]; 6 h) | NRG1 activity [2] | Absorption Rate ([3]; 2h, Gastrodin 25µM, Citicoline 250mM, Acetyl-L-Carnitine 7.5µM, Vit. B group 1mg/mL, Lipoic Acid 50µM) | Absorption Rate ([3]; 3h, same concentrations) | Absorption Rate ([3]; 4h, same concentrations) | Absorption Rate ([3]; 5h, same concentrations) | Absorption Rate ([3]; 6h, same concentrations) |
| --- | --- | --- | --- | --- | --- | --- | --- | --- | --- | --- |
| O=C(O)CCCCC1CCSS1 (stereo not shown) [Lipoic acid] | 49.27% | 53.77% | 51.71% | 41.36% | not able to improve it compared to GGF 200ng/mL |  |  |  |  |  |
| CC(=O)O[C@H](CC(=O)[O-])C[N+](C)(C)C [Acetyl-L-Carnitine, (R)-3-acetyloxy-4-trimethylammonium-butanoate] |  |  |  |  |  | 69.49% | 77.35% | 80.65% | 69.90% | 54.16% |
